Measured values reported in US10975049B2, “Nicotinyl alcohol ether derivative, preparation method therefor, and pharmaceutical composition and uses thereof” (Institute of Materia Medica, Chinese Academy of Medical …, priority 2016, dated 2021).
Counter-ions that a name gives are not always drawn. Blank lines part the entries; values can stand above or below the molecule they belong to.

What was measured:
[1] = tested on: high metastatic melanoma B16F10; assay: Subcutaneous xenograft model of high metastatic melanoma B16F10; format: in vivo, C57BL/6 or Bablc mice; details: for T/C % (relative tumor proliferation rate) / TGI % (tumor growth inhibition rate): tumor weight
Procedure: (§1) The method in subcutaneous xenograft tumor was as follows. The cultured specific tumor cells were digested and collected by centrifugation, and washed with sterile physiological saline for two times and then counted. The cell concentration was adjusted to 5×10^6/ml by physiological saline, and 0.2 ml of cell suspension was inoculated to the right armpit of C57BL/6 or Bablc mice. After inoculation, the animals were randomly divided into two groups in next day. Each group had 6-7 mice. After weighing, the animals were dosed once each day to monitor tumor size. When the tumor size reached to a certain size, the mice was weighed and blood was collected from mice orbit and then the mice were killed by removing the neck. The tumor tissue, thymus tissue and spleen tissue were collected and weighed respectively. Finally, the tumor growth inhibition rate was calculated, and the tumor growth inhibition rate was used to evaluate the level of anti-tumor effect.
(§2) In the study of the mechanism of the above models, the method of flow cytometry was adopted in measuring the total cell proportion of T cells of various types. The specific steps were as follows. The samples were treated at first. For blood tissue, the orbital blood was taken. The red cell lysate was used to remove the red blood cells, and then the PBS buffer was used for wash. After being washed, the cells were collected. For the tumor and spleen, the tissues were grinded with a homogenizer, and then diluted with PBS buffer, then filtered by 300 meshes of screen. After the number of cells was counted for each sample, 1×10^6 cells were added into EP tube and stained for flow antibody. After incubation for 1 h on ice, each sample was washed 2 times with PBS buffer. The cell population was analyzed by VERSE flow instrument of BD Company. The total number of cells in tumor tissue was 1×10^5 and the total number of cells in blood and spleen tissues was 1×10^4. The ratio of T cells to total number of cells was analyzed after flow cytometry.

[2] = tested on: high metastatic melanoma B16F10; assay: Lung metastasis model of high metastatic melanoma B16F10; format: in vivo, C57BL/6 mice; details: for Tumor number X ± SD: lung; for T/C % (relative tumor proliferation rate) / TGI % (tumor growth inhibition rate): tumor number
Procedure: The method in B16F10 lung metastasis model was as follows. The cultured B16F10 tumor cells were digested and centrifuged and washed for two times with sterile physiological saline and then counted. And the cell concentration was adjusted to 2.5×10^6/ml by physiological saline. 0.2 ml of cells were injected into the C57BL/6 mice through the tail vein, and the tumor cells will gather in the lung of the mice. After inoculation, the animals were randomly divided into two groups in next day. Each group had 6-7 mice. After weighing, the animals were dosed once each day. After 3 weeks, the mice were weighed and killed, the lung tissue was collected and weighed, and the number of lung tumors was counted after being fixed by the Bouin's Fluid. Finally, the tumor growth inhibition rate was calculated, and the tumor growth inhibition rate was used to evaluate the level of anti-tumor effect.
as §2

[3] = target: interaction between PD-1 and PD-L1 (Homo sapiens (Human), UniProt Q9NZQ7); assay: Cisbio PD-1/PD-L1 binding assay kit (HTRF); details: molecular level, read-out: IC50 (M), inhibitory activity on the interaction between PD-1 and PD-L1
Chain of interaction between PD-1 and PD-L1 (Q9NZQ7 19-238): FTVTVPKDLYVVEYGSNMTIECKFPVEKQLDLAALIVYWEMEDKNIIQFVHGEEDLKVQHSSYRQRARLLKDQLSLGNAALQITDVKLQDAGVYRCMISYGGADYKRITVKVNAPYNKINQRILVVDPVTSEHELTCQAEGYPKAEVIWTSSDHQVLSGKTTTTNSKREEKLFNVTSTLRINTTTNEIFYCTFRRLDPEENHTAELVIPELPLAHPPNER
Text: 1. In vitro activity evaluation: Cisbio PD-1/PD-L1 binding assay kit was applied for the detection method of in vitro enzymology level.
Screening Principles and Methods of PD-1/PD-L1 Small Molecule Inhibitors
1) Principle: PD-1 protein is with HIS tag, and PD-1 ligand PD-L1 is with hFc tag. Eu labeled anti-hFc antibody and XL665 labeled anti-HIS antibody are combined with the above two label proteins respectively. After laser excitation, energy can be transferred from donor Eu to receptor XL665, allowing XL665 to glow.
2) Experimental method: The specific method can be referred to Cisbio's PD-1/PD-L1 Kit (item 64CUS000C-2). Reagents should be dispensed in the following order. For 384-well white ELISA plate, 2 μl of diluent or target compound diluted with diluent was added to each well, and then 4 μl of PD-1 protein and 4 μl of PD-L1 protein were added per well, incubated for 15 min at room temperature; and 10 μl of a mixture of anti-Tag1-Eu3^+ and anti-Tag2-XL665 was added per well and incubated for 1 h to 4 h at room temperature and the fluorescence signals at 665 nm and 620 nm were measured with an Envison instrument. HTRF rate=(665 nm/620 nm)*10^4. 8-10 concentrations were detected for each compound and IC50 was calculated by Graphpad software.

mouse breast cancer EMT6 = assay: Subcutaneous xenograft model of mouse breast cancer EMT6; format: in vivo, C57BL/6 or Bablc mice
Procedure: as §1

mouse colon cancer MC38 = assay: Subcutaneous xenograft model of mouse colon cancer MC38; format: in vivo, C57BL/6 or Bablc mice; details: 60 mg/kg
Procedure: as §1

[4] = spleen, CTX group, dose not given

SMILES: CCOC(=O)[C@H](CO)NCc1cc(Cl)c(OCc2cccc(-c3ccccc3)c2Br)cc1OCc1cccnc1.Cl.Cl [Example 5, (S)-Ethyl N-(4-(2-bromo-3-phenylbenzyloxy)-5-chloro-2-(pyridin-3-yl-methyleneoxy)benzyl) serinate dihydrochloride]
Tumorweight(g) X ± SD ([1]; 15 mg/kg): 2.69 ± 1.99 g | Body weight (g) Mean ± SD Begin ([1]; 15 mg/kg): 20.4 ± 1.0 g | Body weight (g) Mean ± SD End ([1]; 15 mg/kg): 24.2 ± 2.2 g | T/C % (relative tumor proliferation rate) ([1]; 15 mg/kg): 104.26% | TGI % (tumor growth inhibition rate) ([1]; 15 mg/kg): −4.26% | Tumorweight(g) X ± SD ([1]; 45 mg/kg): 1.41 ± 0.60 g | Body weight (g) Mean ± SD Begin ([1]; 45 mg/kg): 20.3 ± 1.0 g | Body weight (g) Mean ± SD End ([1]; 45 mg/kg): 22.6 ± 1.4 g | T/C % (relative tumor proliferation rate) ([1]; 45 mg/kg): 54.73% | TGI % (tumor growth inhibition rate) ([1]; 45 mg/kg): 45.27% | proportion of tumor-infiltrating lymphocytes ([1]; result in words): increase | CD3+ (%) tumor-infiltrating T lymphocytes ([1]; 45 mg): 10.1 ± 4.5% | CD4+ (%) tumor-infiltrating T lymphocytes ([1]; 45 mg): 9.0 ± 4.7% | CD8+ (%) tumor-infiltrating T lymphocytes ([1]; 45 mg): 5.2 ± 2.8% | Body weight (g) Mean ± SD Begin ([2]; 15 mg/kg): 20.6 ± 0.7 g | Body weight (g) Mean ± SD End ([2]; 15 mg/kg): 20.2 ± 1.5 g | Tumor number X ± SD ([2]; 15 mg/kg): 18 ± 18 | T/C % (relative tumor proliferation rate) ([2]; 15 mg/kg): 85.7% | TGI % (tumor growth inhibition rate) ([2]; 15 mg/kg): 14.3% | Body weight (g) Mean ± SD Begin ([2]; 45 mg/kg): 20.5 ± 0.6 g | Body weight (g) Mean ± SD End ([2]; 45 mg/kg): 21.2 ± 0.7 g | Tumor number X ± SD ([2]; 45 mg/kg): 16 ± 7 | T/C % (relative tumor proliferation rate) ([2]; 45 mg/kg): 76.2% | TGI % (tumor growth inhibition rate) ([2]; 45 mg/kg): 23.8% | CD3+ percentage of T lymphocyte in mouse blood ([2]; 15 mg): 22.7 ± 4.8% | CD4+ percentage of T lymphocyte in mouse blood ([2]; 15 mg): 14.4 ± 3.3% | CD8+ percentage of T lymphocyte in mouse blood ([2]; 15 mg): 7.4 ± 1.9% | CD3+ percentage of T lymphocyte in mouse blood ([2]; 45 mg): 25.8 ± 3.0% | CD4+ percentage of T lymphocyte in mouse blood ([2]; 45 mg): 15.7 ± 2.5% | CD8+ percentage of T lymphocyte in mouse blood ([2]; 45 mg): 7.6 ± 1.8% | percentage of lymphocyte in mouse blood ([2]; result in words): increase

SMILES: CC(C)C(NCc1cc(Cl)c(OCc2cccc(-c3ccccc3)c2Br)cc1OCc1cccnc1)C(=O)O (stereo not drawn) [Example 13, N-(4-(2-bromo-3-phenylbenzyloxy)-5-chloro-2-(pyridin-3-yl-methyleneoxy)benzyl) valine]
IC50 [3]: 2e-07 M

SMILES: O=P1(N(CCCl)CCCl)NCCCO1 (stereo not drawn) [Cyclophosphamide (CTX), Cyclophosphamide, reference compound]
Tumorweight(g) X ± SD ([1]; 80 mg/kg): 1.55 ± 0.59 g | Body weight (g) Mean ± SD Begin ([1]; 80 mg/kg): 20.3 ± 0.8 g | Body weight (g) Mean ± SD End ([1]; 80 mg/kg): 23.3 ± 1.4 g | T/C % (relative tumor proliferation rate) ([1]; 80 mg/kg): 60.00% | TGI % (tumor growth inhibition rate) ([1]; 80 mg/kg): 40.00% | CD3+ (%) T lymphocytes in spleen [1, 4]: 78.6 ± 2.5% | CD4+ (%) T lymphocytes in spleen [1, 4]: 24.6 ± 2.6% | CD8+ (%) T lymphocytes in spleen [1, 4]: 15.2 ± 3.1% | CD3+ (%) tumor-infiltrating T lymphocytes ([1]; CTX group, dose not given): 3.6 ± 1.5% | CD4+ (%) tumor-infiltrating T lymphocytes ([1]; CTX group, dose not given): 1.7 ± 0.4% | CD8+ (%) tumor-infiltrating T lymphocytes ([1]; CTX group, dose not given): 1.4 ± 0.3% | Body weight (g) Mean ± SD Begin ([2]; 80 mg/kg): 20.1 ± 0.8 g | Body weight (g) Mean ± SD End ([2]; 80 mg/kg): 21.4 ± 0.5 g | Tumor number X ± SD ([2]; 80 mg/kg): 18 ± 14 | T/C % (relative tumor proliferation rate) ([2]; 80 mg/kg): 85.7% | TGI % (tumor growth inhibition rate) ([2]; 80 mg/kg): 14.3% | CD3+ percentage of T lymphocyte in mouse blood ([2]; CTX group, dose not given): 22.4 ± 5.5% | CD4+ percentage of T lymphocyte in mouse blood ([2]; CTX group, dose not given): 13.0 ± 2.4% | CD8+ percentage of T lymphocyte in mouse blood ([2]; CTX group, dose not given): 7.5 ± 2.4% | T/C % (relative tumor proliferation rate) (mouse breast cancer EMT6; 60 mg/kg): 14.1% | TGI % (tumor growth inhibition rate) (mouse breast cancer EMT6; 60 mg/kg): 85.9% | Tumorweight(g) X ± SD (mouse breast cancer EMT6; 60 mg/kg): 0.25 ± 0.17 g | Body weight (g) Mean ± SD Begin (mouse breast cancer EMT6; 60 mg/kg, begin): 18.4 ± 0.3 g | Body weight (g) Mean ± SD End (mouse breast cancer EMT6; 60 mg/kg, end): 19.4 ± 0.7 g | tumor growth inhibition rate (mouse breast cancer EMT6; Cyclophosphamide alone vs combination, dose not restated): 85% | T/C % (relative tumor proliferation rate) (mouse colon cancer MC38): 5.4% | TGI % (tumor growth inhibition rate) (mouse colon cancer MC38): 94.6% | Tumor weight(g) Mean ± SD (mouse colon cancer MC38): 0.17 ± 0.05 g | Body weight (g) Mean ± SD Begin (mouse colon cancer MC38; begin): 17.9 ± 0.6 g | Body weight (g) Mean ± SD End (mouse colon cancer MC38; end): 19.1 ± 0.8 g

SMILES: C/C(=C\C#N)NCc1cc(Cl)c(OCc2cccc(-c3ccccc3)c2Br)cc1OCc1cccnc1 [Example 14, (E)-3-(4-(2-bromo-3-phenylbenzyloxy)-5-chloro-2-(pyridin-3-yl-methyleneoxy)benzylamino) but-2-enenitrile]
IC50 [3]: 2.69e-05 M

SMILES: CC(=O)NCCNCc1cc(Cl)c(OCc2cccc(-c3ccccc3)c2Br)cc1OCc1cccnc1 [Example 17, N-(2-acetylaminoethyl)-4-(2-bromo-3-phenylbenzyloxy)-5-chloro-2-(pyridin-3-yl-methyleneoxy) benzylamine]
IC50 [3]: 5.51e-07 M

SMILES: CC[C@H](C)[C@H](NCc1cc(Cl)c(OCc2cccc(-c3ccccc3)c2Br)cc1OCc1cccnc1)C(=O)O [Example 22, N-(4-(2-bromo-3-phenylbenzyloxy)-5-chloro-2-(pyridin-3-yl-methyleneoxy)benzyl) isoleucine]
IC50 [3]: 4.99e-06 M

SMILES: O=C(O)[C@H](Cc1ccc(O)cc1)NCc1cc(Cl)c(OCc2cccc(-c3ccccc3)c2Br)cc1OCc1cccnc1 [Example 21, N-(4-(2-bromo-3-phenylbenzyloxy)-5-chloro-2-(pyridin-3-yl-methyleneoxy)benzyl) tyrosine]
IC50 [3]: 4.06e-07 M

Further molecules by falling IC50 [3], results first:

IC50 [3]: 1.99e-07 M
SMILES: CS(=O)(=O)NCCNCc1cc(Cl)c(OCc2cccc(-c3ccccc3)c2Br)cc1OCc1cccnc1 [Example 16, N-(2-methanesulfonaminoethyl)-4-(2-bromo-3-phenylbenzyloxy)-5-chloro-2-(pyridin-3-yl-methyleneoxy)benzylamine]

IC50 [3]: 1.48e-07 M
SMILES: CCOC(=O)C(CO)NCc1cc(Cl)c(OCc2cccc(-c3ccccc3)c2Br)cc1OCc1cccnc1 (stereo not drawn) [Example 1, Ethyl N-(4-(2-bromo-3-phenylbenzyloxy)-5-chloro-2-(pyridin-3-yl-methyleneoxy)benzyl) serinate dihydrochloride]

IC50 [3]: 8.23e-08 M
SMILES: CC(C)OC(=O)[C@H](CO)NCc1cc(Cl)c(OCc2cccc(-c3ccccc3)c2Br)cc1OCc1cccnc1 [Example 6, (S)-isopropyl N-(4-(2-bromo-3-phenylbenzyloxy)-5-chloro-2-(pyridin-3-yl-methyleneoxy)benzyl) serinate dihydrochloride]

IC50 [3]: 6.1e-08 M
SMILES: CC(C)C[C@H](NCc1cc(Cl)c(OCc2cccc(-c3ccccc3)c2Br)cc1OCc1cccnc1)C(=O)O [Example 20, N-(4-(2-bromo-3-phenylbenzyloxy)-5-chloro-2-(pyridin-3-yl-methyleneoxy)benzyl) leucine]

IC50 [3]: 4.29e-08 M
SMILES: O=C(O)[C@@H](CO)NCc1cc(Cl)c(OCc2cccc(-c3ccccc3)c2Br)cc1OCc1cccnc1 [Example 8, (R)—N-(4-(2-bromo-3-phenylbenzyloxy)-5-chloro-2-(pyridin-3-yl-methyleneoxy)benzyl) serine]

IC50 [3]: 4.11e-08 M
SMILES: O=C(O)CNCc1cc(Cl)c(OCc2cccc(-c3ccccc3)c2Br)cc1OCc1cccnc1 [Example 12, N-(4-(2-bromo-3-phenylbenzyloxy)-5-chloro-2-(pyridin-3-yl-methyleneoxy)benzyl) glycine]
